Results reported in patent publication EP1927378A1, “Hair-treatment compositions comprising quercetin and use thereof to revitalize hair” (Henkel Kommanditgesellschaft auf Aktien, priority 2006, dated 2008).

Experiments:
Format in all cases: cell-based
[1] = test system: KGF; assay: Differential gene expression by quantitative RT-PCR in dermal papilla cells: KGF; settings: for Expression KGF, Mittelwert: 24 h, untreated control = 1, spread in brackets
Excerpt: (§1) Hepatocyte Growth Factor (HGF) und Keratinocyte Growth Factor (KGF) sind wichtige Wachstumsfaktoren, die von den dermalen Papillenzellen synthetisiert werden. Im Speziellen stimuliert HGF das Follikelwachstum und KGF die Keratinozytenproliferation. Entsprechend werden HGF und KGF in der Wachstumsphase vermehrt exprimiert. Diesen Eigenschaften gegenüber steht die Expression von IGFBP-3. Dieses Genprodukt führen zu einer Verschiebung des Zyklus von der Wachstums- zur Regressionsphase. Nach Applikation von Substanzen, die Effekte am biologisch aktiven Teil des Haares hervorrufen, könnte die Bestimmung der Veränderungen der Expression dieser Gene Aussagen über Haarwuchsstimulantien oder -inhibitoren liefern. Die differentielle Genexpression wurde mittels quantitatitiver RT-PCR (Reverse-Transkription Polymerase Kettenreaktion) bestimmt. Nach Anzucht der dermalen Papillenzellen wurden diese für 24 h mit Dihydroquercetin in der Konzentration von 8,8 und 88 µM (entspricht Extrakt der Sibirischen Lerche von 0,003% und 0,0003%) inkubiert. Zur Durchführung der PCR wird zunächst mit Hilfe des RNeasy Mini Kits der Fa. Qiagen die RNA aus den dermalen Papillenzellen isoliert und mittels reverser Transkription in cDNA umgeschrieben. Bei der anschließenden PCR Reaktion, die mit Hilfe genspezifischer Primer für die jeweiligen haarrelevanten Gene durchgeführt wird und die der Amplifikation der gesuchten Genabschnitte dient, wird die Bildung der PCR-Produkte online über ein Fluoreszenzsignal detektiert. Das Fluoreszenzsignal ist dabei proportional zur Menge des gebildeten PCR-Produktes. Je stärker die Expression eines bestimmten Gens ist, desto größer ist die Menge an gebildetem PCR-Produkt und um so höher ist das Fluoreszenzsignal. Zur Quantifizierung der Genexpression wird die unbehandelte Kontrolle gleich 1 gesetzt und die Expression der zu bestimmenden Gene darauf bezogen (x-fache Expression). Dabei werden Werte, die größer/gleich der 2fachen Expression oder kleiner/gleich der 0.5fachen Expression der unbehandelten Kontrolle sind als signifikant differentiell exprimiert eingestuft. […]

[2] = test system: HGF; assay: HGF release into medium (ELISA) from organotypic hair follicle cell cultures; settings: 88 µM
Excerpt: (§2) Hepatocyte Growth Factor (HGF) und Keratinocyte Growth Factor (KGF) sind wichtige Wachstumsfaktoren, die von der dermalen Papille ausgeschüttet werden, um die Proliferation der Haarschaftkeratinozyten, die für die Synthese der Haarkeratine verantwortlich sind, zu steuern. Sie sind außerdem charakteristische Marker für die Anagenphase, in der auch die Keratinsynthese maximal ist. Darüber hinaus ist zu beachten, dass bei der Haaralterung das Proliferationsvermögen der Haarfollikelzellen abnimmt. Die Ausschüttung von HGF sowie KGF kann mit Hilfe von kommerziell erhältlichen ELISA-Kits quantifiziert werden. Dazu werden organotypische Haarfollikelzellkulturen über 72h mit Dihydroquercetin in der Konzentration 88 µM (entspricht Extrakt der Sibirischen Lerche von 0,003%) inkubiert und die Konzentration der Wachstumsfaktoren im Medium in beschriebener Weise bestimmt. Tabelle 4: Relative Ausschüttung von HGF und KGF in [%] nach Behandlung von organotypischen Haarfollikelzellkulturen im Vergleich zu unbehandelten Kontrollen.

[3] = test system: hHa3-I; assay: Hair keratin expression by quantitative real-time PCR in organotypic cell cultures: hHa3-I; settings: 88 µM, 24 h after application
Excerpt: (§3) Hepatocyte Growth Factor (HGF) und Keratinocyte Growth Factor (KGF) sind wichtige Wachstumsfaktoren, die von den dermalen Papillenzellen synthetisiert werden. Im Speziellen stimuliert HGF das Follikelwachstum und KGF die Keratinozytenproliferation. Entsprechend werden HGF und KGF in der Wachstumsphase vermehrt exprimiert. Diesen Eigenschaften gegenüber steht die Expression von IGFBP-3. Dieses Genprodukt führen zu einer Verschiebung des Zyklus von der Wachstums- zur Regressionsphase. […] Die differentielle Genexpression wurde mittels quantitatitiver RT-PCR (Reverse-Transkription Polymerase Kettenreaktion) bestimmt. […] Zur Quantifizierung der Genexpression wird die unbehandelte Kontrolle gleich 1 gesetzt und die Expression der zu bestimmenden Gene darauf bezogen (x-fache Expression). […]
(§4) Die Festigkeit der Haare und die Haarstruktur ist im Wesentlichen von der Zusammensetzung spezieller haarspezifischer Strukturproteine abhängig, den Haarkeratinen. […] Die Expression verschiedener Haarkeratine organotypischen Modellen kann mit Hilfe des in Beispiel 8 beschriebenen quantitativen Real-Time-PCR-Verfahrens untersucht werden. Zur Quantifizierung der Genexpression wird die Lösungsmittelkontrolle gleich 1 gesetzt und die Expression der zu bestimmenden Gene darauf bezogen (x-fache Expression). […]

[4] = test system: hHa4; assay: Hair keratin expression by quantitative real-time PCR in organotypic cell cultures: hHa4; settings: 88 µM, 24 h after application
Excerpt: as §3, §4

[5] = test system: HGF; assay: Differential gene expression by quantitative RT-PCR in dermal papilla cells: HGF; settings: for Expression HGF, Mittelwert: 24 h, untreated control = 1, spread in brackets
Excerpt: as §1

[6] = test system: organotypischen Zellkulturen; assay: ATP production (ATPLite-M luminescence assay) in organotypic cell cultures; settings: 24 h
Excerpt: ATP (Adenosintriphosphat) ist die universelle Speicherform für chemische Energie in Zellen. Bei der Abspaltung der distalen Phosphatgruppe entsteht ADP und Pi (anorganisches Phosphat). Diese Reaktion ist stark exergon, d.h. es wird Energie frei. Produziert wird ATP beim zellulären, oxidativen Abbau von Fetten, Kohlehydraten und Proteinen. Es dient als Energielieferant für biochemische Synthesen, für Transportvorgänge (aktiver Transport) und für mechanische Arbeit. Diese Vorgänge sind endergon, d.h. sie laufen nur unter Energiezufuhr ab. Um ihren Stoffwechsel optimal aufrecht zu erhalten, sind Zellen also auf eine ausreichende Versorgung mit ATP angewiesen. Auch dermale Papillenzellen benötigen beispielsweise zur Produktion von Wachstumsfaktoren und damit zur Steuerung des Haarzyklus ATP. Die Proliferation und Differenzierung von Haarschaftkeratinozyten ist ebenfalls an die ATP-Synthese gekoppelt, da für beide Vorgänge die Biosynthese spezifischer Proteine essentielle Voraussetzung ist. Kann durch ein Produkt die ATP-Syntheserate der haarrelevanten Zellen erhöht werden, so steht den Zellen mehr Energie zur Verfügung um Stoffwechselvorgänge und zelluläre Strukturen aufrecht zu erhalten, und um Strukturen zu erneuern, z.B. bei Reparaturprozessen oder dem Neuaufbau von Haaren.
Die ATP-Bestimmungen erfolgten mit Hilfe des ATPLiteTM-M Assays (Packard). […]

[7] = test system: "Outer Root Sheath" Keratinozyten; assay: Layer thickness of ORS keratinocytes in organotypic cell culture model (histology); settings: 88 µM, 72 h
Excerpt: Physiologische Effekte der Behandlung mit potentiellen Wirkstoffen hinsichtlich einer Verdickung des Haares kann anhand einer Steigerung der Schichtdicke der "Outer Root Sheath" Keratinozyten im organotypischen Zellkulturmodell bestimmt werden. Dazu werden jeweils drei Modelle nach 72 stündiger Inkubation mit Wirkstoff oder mit Referrenzmedium histologisch analysiert: Fixation in 4 % Paraformaldehyd, Färbung mittels Propidiumiodid und mikroskopische Analyse. Im Folgenden wird die Dicke der ORS Keratinozytenschicht des organptypischen Modells randomisiert vermessen und die Ergebnisse werden in Relation zur unbehandelten Kontrolle dargestellt. Tabelle 5: Steigerung der Schichtdicke nach Behandlung der organptypischen Zellkultur mit Dihydroquercetin in der Konzentration von 88 µM (entspricht Extrakt der Sibirischen Lerche von 0,003%) in % im Vergleich zur unbehandelte Probe

[8] = test system: KGF; assay: KGF release into medium (ELISA) from dermal papilla cells; settings: for Relative Ausschüttung von KGF, Mittelwert [%]: 24 h, untreated sample = 100, spread in brackets
Experimental: Der Keratinozyten Wachstumsfaktor Factor (KGF) ist ein äußerst wichtiger Regulator des Haars. Bei einer potentiell wachstumsfördernden und das Haar stärkenden Aktivsubstanz kann von einer Steigerung der ins Medium ausgeschütteten Faktoren ausgegangen werden. Die Ausschüttung von KGF kann mit Hilfe von kommerziell erhältlichen ELISA-Kits quantifiziert werden. Dazu wurden die dermalen Papillenzellen über 24 Stunden mit Dihydroquercetin in der Konzentration von 8,8 und 88 µM (entspricht Extrakt der Sibirischen Lerche von 0,003% und 0,0003%) inkubiert und die Konzentration des Wachstumsfaktors im Medium in beschriebener Weise quantifiziert. Tabelle 3: Relative Ausschüttung von KGF in [%] nach Behandlung der dermalen Papillenzellen im Vergleich zur unbehandelten Probe.

[9] = test system: IGFBP3; assay: Differential gene expression by quantitative RT-PCR in dermal papilla cells: IGFBP3; settings: for Expression IGFBP3, Mittelwert: 24 h, untreated control = 1, spread in brackets
Excerpt: as §1

[10] = test system: KGF; assay: KGF release into medium (ELISA) from organotypic hair follicle cell cultures; settings: 88 µM
Excerpt: as §2

[11] = dermal papilla cells, 24 h treatment
[12] = organotypic hair follicle cell cultures, 72 h, untreated control = 100, spread in brackets
[13] = control = 1, spread in brackets

## O=C1c2c(O)cc(O)cc2OC(c2ccc(O)c(O)c2)C1O (stereo not drawn) [Dihydroquercetin, 2-(3.4-dihyrdroxy-phenyl)-3 5 7-trihydroxy-chroman-4-one]
[1]; dermal papilla cells, 88 µM
  Expression KGF, Mittelwert: 2,18 (0,27) x-fache Expression
[1]; dermal papilla cells, 8,8 µM
  Expression KGF, Mittelwert: 2,71 (0,36) x-fache Expression
[1]; [11]
  Genexpression von KGF (result in words): signifikanten Induktion
[2]; [12]
  Relative Ausschüttung von HGF, Mittelwert [%]: 142 (15) %
[2]; organotypic hair model
  Freisetzung des Hepatozyten Wachstumsfaktor (HGF) (result in words): erhöhte Freisetzung
[3]
  Keratinexpression hHa3-I (result in words): Steigerung der Keratinexpression
[3]; [13]
  Haarkeratinexpression hHa3-I: 4,1 (1,5) x-fache Expression
[4]
  Keratinexpression hHa4 (result in words): Steigerung der Keratinexpression
[4]; [13]
  Haarkeratinexpression hHa4: 4,1 (1,6) x-fache Expression
[5]; dermal papilla cells, 88 µM
  Expression HGF, Mittelwert: 3,62(2,11) x-fache Expression
[5]; dermal papilla cells, 8,8 µM
  Expression HGF, Mittelwert: 2,90 (1,18) x-fache Expression
[5]; [11]
  Genexpression von HGF (result in words): tendenziell
[6]; 88 µM (= 0,003% Extrakt der Sibirischen Lerche), untreated sample = 100
  ATP-Produktion von organotypischen Zellkulturen in %, Mittelwert (Standardabweichung): 138 (10) %
[6]; organotypic cell cultures, 88 µM
  Steigerung der ATP-Produktion gegenüber der unbehandelten Kontrolle: 38%
[7]; called tendential
  Steigerung der ORS Keratinozytenschichtdicke: 11%
[7]; control = 100, spread in brackets
  Schichtdicke in % im Vergleich zur unbehandelte Probe, Mittelwert: 111 (4) %
[8]; dermal papilla cells, 88 µM
  Relative Ausschüttung von KGF, Mittelwert [%]: 176 (16,7) %
[8]; dermal papilla cells, 8,8 µM
  Relative Ausschüttung von KGF, Mittelwert [%]: 173 (17,6) %
[8]; dermal papilla cells, 8,8 and 88 µM
  Freisetzung von KGF (result in words): signifikant erhöhten Freisetzung
[9]; dermal papilla cells, 88 µM
  Expression IGFBP3, Mittelwert: 0,63(0,13) x-fache Expression
[9]; dermal papilla cells, 8,8 µM
  Expression IGFBP3, Mittelwert: 0,72 (0,04) x-fache Expression
[9]; [11]
  Genexpression von IGFBP-3 (result in words): tendenziellen verminderten Expression
[10]; [12]
  Relative Ausschüttung von KGF, Mittelwert [%]: 126 (7) %
[10]; organotypic hair model
  Freisetzung von KGF (result in words): Aktivierung der Freisetzung
